How the values were obtained:
UACC-62 = assay: in vitro melanoma cell growth inhibition (NCI screen)
MDA-N = assay: in vitro breast cancer cell growth inhibition (NCI screen)
MALME-3M = assay: in vitro melanoma cell growth inhibition (NCI screen)
MDA-MB-435 = assay: in vitro breast cancer cell growth inhibition (NCI screen)
NCI-H23 = assay: in vitro non-small cell lung cancer cell growth inhibition (NCI screen)
KM 12 = assay: in vitro colon cancer cell growth inhibition (NCI screen)
OVCAR-3 = assay: in vitro ovarian cancer cell growth inhibition (NCI screen)
SNB-75 = assay: in vitro CNS cancer cell growth inhibition (NCI screen)
DLD-1 = assay: in vitro colon cancer cell growth inhibition (NCI screen)
IGROV1 = assay: in vitro ovarian cancer cell growth inhibition (NCI screen)
HOP-92 = assay: in vitro non-small cell lung cancer cell growth inhibition (NCI screen)
RXF-393 = assay: in vitro renal cancer cell growth inhibition (NCI screen)
ACHN = assay: as above
SR = assay: in vitro leukemia cell growth inhibition (NCI screen)
HL-60(TB) = assay: as above
SW 620 = assay: in vitro colon cancer cell growth inhibition (NCI screen)
RPMI-8226 = assay: in vitro leukemia cell growth inhibition (NCI screen)
XF-498 = assay: in vitro CNS cancer cell growth inhibition (NCI screen)
HCT-15 = assay: in vitro colon cancer cell growth inhibition (NCI screen)
OVCAR-8 = assay: in vitro ovarian cancer cell growth inhibition (NCI screen)
SF-539 = assay: in vitro CNS cancer cell growth inhibition (NCI screen)
human tumor cell lines = format: cell-based; conditions: Homo sapiens; cancer cell panel, general / most cell lines; read-out: logGI50 values in the cancer cell line panel (converted)
UACC-257 = assay: in vitro melanoma cell growth inhibition (NCI screen)
SF-268 = assay: in vitro CNS cancer cell growth inhibition (NCI screen)
M14 = assay: in vitro melanoma cell growth inhibition (NCI screen)
NCI-H522 = assay: in vitro non-small cell lung cancer cell growth inhibition (NCI screen)
CCRF-CEM = assay: in vitro leukemia cell growth inhibition (NCI screen)
OVCAR-4 = assay: in vitro ovarian cancer cell growth inhibition (NCI screen); conditions: OVACR-4
MCF-7 = assay: in vitro breast cancer cell growth inhibition (NCI screen)
HCT-116 = assay: in vitro colon cancer cell growth inhibition (NCI screen)
K-562 = assay: in vitro leukemia cell growth inhibition (NCI screen)
COLO-205 = assay: in vitro colon cancer cell growth inhibition (NCI screen)
UO-31 = assay: in vitro renal cancer cell growth inhibition (NCI screen)
SK-MEL-5 = assay: in vitro melanoma cell growth inhibition (NCI screen)
M19-MEL = assay: as above
SK-MEL-2 = assay: as above
MOLT-4 = assay: in vitro leukemia cell growth inhibition (NCI screen)
LOX1MVI = assay: in vitro melanoma cell growth inhibition (NCI screen)
HT 29 = assay: in vitro colon cancer cell growth inhibition (NCI screen)
PC-3 = assay: in vitro prostate cancer cell growth inhibition (NCI screen)
NCI-H266 = assay: in vitro non-small cell lung cancer cell growth inhibition (NCI screen)
T-47D = assay: in vitro breast cancer cell growth inhibition (NCI screen)
U 251 = assay: in vitro CNS cancer cell growth inhibition (NCI screen)

Row | SMILES | cytotoxicity log GI50 (UACC-62) [M] | cytotoxicity log GI50 (MDA-N) [M] | cytotoxicity log GI50 (MALME-3M) [M] | cytotoxicity log GI50 (NCI-H23) [M] | cytotoxicity log GI50 (KM 12) [M] | cytotoxicity log GI50 (OVCAR-3) [M] | cytotoxicity log GI50 (RXF-393) [M] | cytotoxicity log GI50 (ACHN) [M] | cytotoxicity log GI50 (HL-60(TB)) [M] | cytotoxicity log GI50 (SW 620) [M] | cytotoxicity log GI50 (XF-498) [M] | cytotoxicity log GI50 (HCT-15) [M] | cytotoxicity log GI50 (SF-539) [M] | cytotoxicity log GI50 (UACC-257) [M] | cytotoxicity log GI50 (NCI-H522) [M] | cytotoxicity log GI50 (CCRF-CEM) [M] | cytotoxicity log GI50 (HCT-116) [M] | cytotoxicity log GI50 (K-562) [M] | further results
1 | COC(=O)CCCC(=O)NC1=C(Nc2ccccc2)C(=O)c2ccccc2C1=O [Compound 52] | -5.49 | -5.41 | -5.45 | -4.97 | -5.28 | -4.90 |  |  |  |  |  |  |  |  |  |  |  |  | cytotoxicity log GI50 (MDA-MB-435): -5.26 M
2 | O=C(Cc1ccc(F)cc1)NC1=C(Cl)C(=O)c2ccccc2C1=O [Compound 2j] |  |  | -5.67 | -5.89 |  |  | -5.75 | -5.70 | -7.56 | -5.68 | -5.71 | -5.64 | -5.65 |  |  |  |  |  | cytotoxicity log GI50 (SNB-75): -5.66 M; cytotoxicity log GI50 (DLD-1): -5.62 M; cytotoxicity log GI50 (IGROV1): -5.73 M; cytotoxicity log GI50 (HOP-92): -5.72 M; cytotoxicity log GI50 (SR): -6.88 M; cytotoxicity log GI50 (RPMI-8226): -7.07 M; cytotoxicity log GI50 (OVCAR-8): -5.71 M; GI50 (human tumor cell lines): 0.0251 to 2.51 µM
3 | O=C(O)CCCc1nc2c(n1-c1ccccc1)C(=O)c1ccccc1C2=O [Compound 58] | -4.48 | -4.36 | -4.67 |  | -4.50 | -4.47 |  |  | -4.43 |  |  |  |  | -4.48 | -4.85 | -4.39 | -4.31 |  | cytotoxicity log GI50 (SNB-75): -4.36 M; cytotoxicity log GI50 (SF-268): -4.42 M; cytotoxicity log GI50 (M14): -4.72 M; cytotoxicity log GI50 (OVCAR-4): -4.62 M; cytotoxicity log GI50 (MCF-7): -4.49 M; cytotoxicity log GI50 (RPMI-8226): -4.39 M
4 | CC(=O)NC1=C(NCC(C)(C)C)C(=O)c2ccccc2C1=O [Compound 38] | -4.41 |  | -4.46 |  |  | -4.26 | -4.43 | -4.57 | -4.49 |  | -4.59 | -4.26 | -4.48 | -4.30 | -4.72 | -4.42 | -4.47 | -4.42 | cytotoxicity log GI50 (COLO-205): -4.41 M; cytotoxicity log GI50 (UO-31): -4.33 M; cytotoxicity log GI50 (SK-MEL-5): -4.40 M; cytotoxicity log GI50 (M19-MEL): -4.68 M
5 | CCC(C)(C)NC1=C(NC(C)=O)C(=O)c2ccccc2C1=O [Compound 36] | -4.60 |  | -4.54 | -4.72 |  |  | -4.60 | -4.82 | -4.78 |  | -4.84 |  | -4.61 | -4.69 | -4.99 | -4.77 | -4.75 | -4.68 | cytotoxicity log GI50 (SK-MEL-2): -4.68 M; cytotoxicity log GI50 (SR): -4.50 M; cytotoxicity log GI50 (MOLT-4): -4.86 M; cytotoxicity log GI50 (UO-31): -4.56 M; cytotoxicity log GI50 (LOX1MVI): -4.53 M; cytotoxicity log GI50 (SK-MEL-5): -4.87 M; cytotoxicity log GI50 (M19-MEL): -4.88 M
6 | CCCC(=O)NC1=C(NCC)C(=O)c2ccccc2C1=O [Compound 46] |  | -4.68 | -4.41 |  | -4.28 | -4.47 | -4.32 |  | -4.39 | -4.48 |  | -4.40 |  | -4.40 | -4.59 |  | -4.36 | -4.29 | cytotoxicity log GI50 (COLO-205): -4.44 M; cytotoxicity log GI50 (HT 29): -4.36 M; cytotoxicity log GI50 (MDA-MB-435): -4.60 M; cytotoxicity log GI50 (PC-3): -4.39 M
7 | O=C(NC1=C(Cl)C(=O)c2ccccc2C1=O)c1ccc(F)cc1 [Compound 2f] | -6.55 |  | -5.82 |  |  |  | -5.90 | -6.03 | -6.47 | -6.11 |  | -6.27 |  | -5.71 | -6.34 | -6.10 | -6.34 | -6.04 | cytotoxicity log GI50 (NCI-H266): -5.96 M; cytotoxicity log GI50 (IGROV1): -5.77 M; cytotoxicity log GI50 (HOP-92): -5.79 M; cytotoxicity log GI50 (T-47D): -5.72 M; cytotoxicity log GI50 (U 251): -5.73 M; cytotoxicity log GI50 (MOLT-4): -5.65 M; cytotoxicity log GI50 (PC-3): -5.95 M; GI50 (human tumor cell lines): ~1 µM

Reference: US5789431A, “Naphthoquinone antitumor compound and method” (The University of North Carolina at Chapel Hill, priority 1996, dated 1998)
